Source: ChEMBL document CHEMBL3507680, “University of Dundee, Gates Library screen for HepG2 cell viability”

Assay: Human HepG2 cell viability assay in 384 well format
Format: toxicity, cell-based
Set-up: dose 125 nL, time 70.5 hour; concentration not given beside the values
Conditions: HepG2 cells, read-out: Inhibition

| SMILES | cytotoxicity at 70.5 h [%] |
| --- | --- |
| CS(=O)(=O)NCCNC(=O)C1(c2cccc(Cl)c2)CC1 | -4.01 |
| Cc1n[nH]c2c1C(c1ccc(Br)cc1)SCC(=O)N2 (stereo unspecified) | -8.1 |
| Cn1ccc(C(=O)N2CCC3(CCC(=O)N(C4CCCC4)C3)CC2)n1 | 12.2 |
| Cn1ccnc1CN1CCCN(C(=O)c2ccc(O)nc2)CC1 | -4.72 |
| c1ccc(-c2nnc(CN3C[C@@H]4CC[C@H](C3)N(CC3CCC3)C4)o2)cc1 | 18.8 |
| Cc1ncccc1CNCC1CCN(CC(O)c2ccccc2)CC1 (stereo unspecified) | -1.3 |
| CC(Cn1cccn1)NC(=O)N1CCN(Cc2ccsc2)CC1 (stereo unspecified) | -1.89 |
| Cn1ccc(C(=O)Nc2cccc(-c3ccc4c(c3)CCO4)n2)cc1=O | -20.6 |
| COC(=O)CCn1ccc(=O)c2cc(F)ccc21 | -8.87 |
| CCCn1cc(C(=O)NC(C(=O)O)c2ccccc2C(F)(F)F)c(C)n1 (stereo unspecified) | -8.7 |
| Cc1cc(CCC(=O)N(C)C)nc(C2CCCCN2)n1 (stereo unspecified) | -5.77 |
| CC(=O)N1Cc2cnc(C(C)(C)C)nc2C1 | 19.2 |
| Cc1cc(NC(=O)CN2CCN(c3nccs3)C(C)C2)n(C)n1 (stereo unspecified) | -7.64 |
| CNc1cc(N2CCCC2CNCc2ccc(Cl)o2)ncn1 (stereo unspecified) | 8.16 |
| COCCS(=O)(=O)NCC(C)c1cccc(C)c1 (stereo unspecified) | -3.93 |
| CN(C)c1cc(C(=O)NC2(c3cccc(F)c3)CCOCC2)ccn1 | -1.02 |
| Cc1cc(CNC(=O)NCC(O)c2cccc(C(F)(F)F)c2)no1 (stereo unspecified) | 1.91 |
| NC(=O)C1CCN(C(=O)Cc2cnc(-c3c(Cl)cccc3Cl)s2)CC1 | -13.5 |
| CC(C)(C)c1nc(CN(CCO)Cc2cc(Br)ccc2F)no1 | -3.27 |

| SMILES | cytotoxicity at 70.5 h [%] |
| --- | --- |
| CCOCC1CN(CCc2ccccc2)Cc2c1cnn2C (stereo unspecified) | 10.7 |
| Cc1nc(C)n(C2CCCN(C(=O)Cc3csc(C(C)C)n3)C2)n1 (stereo unspecified) | -3.36 |
| Cc1cccn2c(CNC(C)CO)cnc12 (stereo unspecified) | 40.8 |
| COc1ccc2c(C)nc(N3C[C@@H](C)O[C@@H](C)C3)nc2c1 | -16.1 |
| COc1nc2ccn(CCc3scnc3C)c(=O)c2cc1C#N | -4.15 |
| CCN1CCN(C(=O)c2cccc(CN3CCOCC3)c2)CC1 | -5.52 |
| FC(F)(F)c1cc(NCCCn2cccn2)nc(-c2cccnc2)n1 | 22.2 |
| Cc1cc(C)n(C2CN(CC(=O)N(C)Cc3cnn(C)c3)C2)n1 | -7 |
| CSCC(C)(O)CNC(=O)c1cc(F)ccc1Br (stereo unspecified) | 1.71 |
| O=S(=O)(NC[C@H]1C[C@@H]2CCN1C[C@@H]2CN1CCOCC1)c1ccccc1 | -0.151 |
| c1ncn(Cc2cn3c(n2)CN(CC2CCCCC2)CC3)n1 | -3.74 |
| CC(C)c1nc2c(n1C)CCN(CC(=O)Nc1ccnn1C(C)C)C2 | 0.248 |
| CC(C)CN1CC2(CCN(C(=O)c3nc4ncccn4n3)CC2)CC1=O | -17.1 |
| CCCC1(CNCc2ncc[nH]2)CCC1 | -8.95 |
| CS(=O)(=O)N1CCC(C(=O)NC(Cc2ccsc2)c2ccccn2)CC1 (stereo unspecified) | -3.67 |
| CCOC(=O)c1sc(NC(=O)C(C)C)c(C#N)c1C | -5.23 |
| CC(OCCCNC(=O)c1cccnc1O)c1ccccc1 (stereo unspecified) | -1.73 |
| CN(C)c1cc(CNC(=O)c2ccc(F)cc2F)ccn1 | -10.5 |
| CS(=O)(=O)CCNC(=O)Nc1sc2ccccc2c1Cl | -11.7 |

| SMILES | cytotoxicity at 70.5 h [%] |
| --- | --- |
| CN(C)C(=O)c1ccc(-c2cccc3c2CCNC3)cc1 | -18 |
| CO[C@H]1CCN(Cc2c(C)noc2C)[C@@H]2CN(Cc3ccncc3)C[C@H]12 | -5.37 |
| Cn1c(CCCNC(=O)Nc2cn[nH]c2)nc2ccccc21 | -3.29 |
| CC(C)n1ccc(-c2cc(C(=O)NC3CC3)c3ccccn23)n1 | 21.3 |
| Cc1ccccc1CNCC(O)c1ccc(OC(C)C)cc1 (stereo unspecified) | -0.135 |
| O=S1(=O)NC(c2ccnc(N3CCCCC3)n2)=Nc2ccccc21 | 7.4 |
| CCc1cc(C(=O)N2CC[C@@H](c3ccc4c(c3)OCO4)[C@H](O)C2)ccn1 | 16.7 |
| COCC(O)CNC(=O)c1cnc(-c2ccccc2)nc1O (stereo unspecified) | -11.4 |
| CN1C(Cn2cccn2)C[C@@H]2CN(C(=O)c3cccc(C#N)c3)CC[C@@H]21 (stereo partly specified) | -7.79 |
| Cc1cccc(CN2C[C@H](NS(C)(=O)=O)[C@@H]3OCCC[C@@H]32)n1 | 4.73 |
| Cc1ccc(CCNc2ncnc3sc4c(c23)CCNC4)o1 | -8.67 |
| CCC(=O)N1CCCC(C(=O)c2cnn(-c3ccc(F)cc3)c2N)C1 (stereo unspecified) | -0.996 |
| Cc1nn(C)c(C)c1-c1ccc(=O)n(C(C)C(=O)NC2CCCC2)n1 (stereo unspecified) | -5.55 |
| COCCNC(=O)c1ccc2c(=O)n3c(nc2c1)CCCCC3 | -22.9 |
| CN1CCCN(C[C@@H]2CN(C(=O)CCC3CCCC3)C[C@@H]2CO)CC1 | -7.86 |
| CCc1ccc(CNC[C@H]2C[C@@H](CO)N(C)[C@H]2c2ccccc2F)o1 | -2.04 |
| CSc1ccsc1C(=O)N1CCN(CC(C)(C)O)CC1 | -0.902 |
| CCCNC(=O)c1cnc(N(C)C)nc1COC | -5.33 |
